# Test results taken from patent US20250243208A1, “BICYCLIC HETEROCYCLES AS MRGPRX2 ANTAGONISTS” (Incyte Corporation, priority 2024, published 2025).
# Key:
# MRGPRX2 [1] = target: T1, MRGPRX2 (Homo sapiens, UniProt Q96LB1); assay: MRGPRX2 FLIPR calcium mobilization assay; format: cell-based; design: host or cells: CHO-K1; conditions: CHO-K1 cells, agonist Cortistatin-14 at EC80, Ca2+ release
# T1 sequence (Q96LB1 1-330): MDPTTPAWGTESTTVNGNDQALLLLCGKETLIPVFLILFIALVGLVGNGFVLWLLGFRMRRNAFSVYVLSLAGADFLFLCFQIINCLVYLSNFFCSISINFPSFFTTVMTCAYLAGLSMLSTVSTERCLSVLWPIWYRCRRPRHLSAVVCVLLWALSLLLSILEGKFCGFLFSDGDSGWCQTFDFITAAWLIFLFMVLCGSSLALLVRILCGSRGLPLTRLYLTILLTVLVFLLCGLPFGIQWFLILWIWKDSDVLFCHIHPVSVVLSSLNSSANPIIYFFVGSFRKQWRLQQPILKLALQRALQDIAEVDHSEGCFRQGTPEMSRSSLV
# Description: Example A. MRGPRX2 FLIPR Calcium Mobilization Assay
# Chinese hamster ovary (CHO-K1) cells stably expressing human MRGPRX2 were purchased from Genescript (Piscataway, NJ). The cells were maintained in culture medium (Ham's F-12K) containing 10% (v/v) FBS, 200 μg/mL Zeocin, 100 units/mL penicillin G and 100 μg/mL streptomycin (Life Technologies, Carlsbad, CA). For the assay, the cells were harvested and resuspended with culture medium without Zeocin before plating at 8000 cells per well in 20 μL in 384-well black clear bottom cell culture plates (VWR, Radnor, PA). […] Ca^2+ release was measured with FLIPR Penta with 10 s basal fluorescence measurement, then 12.5 μL of 5× agonist Cortistatin-14 (Tocris, Minneapolis, MN) at final concentration corresponding to the EC80 were added followed with continued fluorescence signal monitoring for an additional 110 s. The base line adjusted (median of first 10s base line) max value of the Relative Fluorescence Unit (RFU) was plotted against compound concentrations. […]
# MRGPRX2 [2] = target: T1, MRGPRX2; assay: MRGPRX2 β-Arrestin recruitment assay (PathHunter CHO-K1); format: cell-based; design: host or cells: PathHunter CHO-K1; conditions: PathHunter CHO-K1 cells, agonist Cortistatin 14 0.25 μM
# MRGPRX2 [3] = target: T1, MRGPRX2; assay: MRGPRX2 IP1 HTRF assay; format: cell-based; design: host or cells: CHO-K1; conditions: CHO-K1 cells, agonist Cortistatin 14 1 μM, IP1 accumulation
# Excerpt: Example B: MRGPRX2 IP1 HTRF Assay
# This assay measures compound inhibition of myo-Inositol 1 phosphate (IP1) accumulation in CHO-K1 cells. Chinese hamster ovary (CHO-K1) cells stably expressing human MRGPRX2 were purchased from GenScript (Piscataway, NJ).
# For the HTRF IP1 determination, an IP-One GqKit (Perkin Elmer Cisbio, Waltham, MA), which includes all reagents and buffers in this protocol, was used. The cells were maintained in culture medium (Ham's F-12K) containing 10% (v/v) FBS, and 200 μg/mL Zeocin. For the assay, the cells were harvested and resuspended in culture medium with 2% FBS and without Zeocin, then were passed through a 40 μm filter. Cells were added at 20000 cells in a 5 μL/well to a 384-well white small volume cell culture plate (Greiner VWR, Radnor, PA) which contained 50 nL/well of test compound serially diluted at a selected concentration range in DMSO. 5 μL/well of prepared 2× Stimulation Buffer2 was then added to plates and was incubated at 37° C. with 5% CO2 for 1 h. 5 μL/well of agonist Cortistatin 14 (Bio-TechneR&D Systems, Minneapolis, MN) in 1× Stimulation Buffer 2, for a 1 μM final concentration, was then added to plates and incubated at 37° C. with 5% CO2 for 1 h. 6 μL/well of 1:20 diluted Detection Reagent Mix (d2 and Cryptate) was added to the plates and incubated for 1 h in the dark. Plates were read on the PHERAstar microplate reader (BMG Labtech Cary, NC) to determine the HTRF ratio of the acceptor and donor emission signals. The IP1 concentrations were calculated from a standard curve following the IP-One GQ kit instructions. Wells with DMSO only and wells with high concentration of reference antagonist were used as controls for normalization. Compound IC50 curves were globally fitted with 3- or 4-parameter Hill equation in a Genedata Screener (Genedata Basel, Switzerland).
# MRGPRX2 [4] = target: T1, MRGPRX2; assay: potency comparison of separated isomers (assay not stated); conditions: compared with the other separated diastereomer/enantiomer
IC50 (MRGPRX2 [1]),IC50 (MRGPRX2 [2]),IC50 (MRGPRX2 [3]),relative potency of the separated isomer (MRGPRX2 [4]),SMILES
0.1 to 100 nM,0.1 to 100 nM,,,"CC(CNc1cc(C(F)(F)F)nc2cc(C(F)(F)F)nn12)(c1ccc(F)cc1)C1CNC1 (racemic) [Example 13, N-(2-(Azetidin-3-yl)-2-(4-fluorophenyl)propyl)-2,5-bis(trifluoromethyl)pyrazolo[1,5-a]pyrimidin-7-amine]"
0.1 to 100 nM,0.1 to 100 nM,0.1 to 100 nM,,"CC(CNc1cc(C(F)(F)F)nc2cc(C(F)(F)F)nn12)(c1ccc(F)cc1)C1CN(/C(N)=N/C#N)C1 (racemic) [Example 14, 3-(1-((2,5-Bis(trifluoromethyl)pyrazolo[1,5-a]pyrimidin-7-yl)amino)-2-(4-fluorophenyl)propan-2-yl)-N′-cyanoazetidine-1-carboximidamide]"
,0.1 to 100 nM,0.1 to 100 nM,more potent,"CC(CNc1cc(C(F)(F)F)nc2cc(C(F)(F)F)nn12)(c1ccc(F)cc1)C1CCN(CC(N)=O)C1 (single isomer, unassigned) [Example 17, 2-(3-(1-((2,5-Bis(trifluoromethyl)pyrazolo[1,5-a]pyrimidin-7-yl)amino)-2-(4-fluorophenyl)propan-2-yl)pyrrolidin-1-yl)acetamide]"
